Patent US20230129866A1 (PureTech LYT 100, Inc., priority 2020, published 2023)

Columns and labels:
[1] = human, in vivo
Protocol: (§1) Up to 5 dosing cohorts are planned in Part 1.
(§2) Additional cohorts and intermediate doses may be selected in lieu of predefined doses as noted and in accordance with safety and tolerability responses, but doses will not exceed 1000 mg BID or a total daily dose of 2000 mg.
(§3) A standardised lunch will be served ≥4 h post breakfast and ≥4 h prior to dinner. An evening snack will be served ≥3 h following evening study medication administration. No additional fluids will be allowed during the 1 h pre- and post-doses. On Day 6, subjects will replicate mealtimes as scheduled on Day 1-5.
(§4) Plasma PK parameters (non-compartmental or compartmental analysis as appropriate) will include, but are not limited to: • Following single dose: Tmax, tlag, Cmax, AUC0-4, AUC0-last, t1/2, AUC0-inf, lambda z, %AUCext, CL/F, Vz/F, Cmax/D, AUC0-last/D, AUC0-inf/D and MRT (D is dose) • After repeated doses: Ctrough, Ctrough/D • Following repeated doses on last day: Tmax, Cmax, Cavg, tlag, t1/2, AUC0-4, AUC0-last; AUC0-inf, lambda z, %AUCext, CLss/F, Vzss/F, MRT, PTF, Rac(AUC), Rac(Cmax), Cmax/D, AUClast/D, AUC0-inf/D and Rae (accumulation ratio).

L929 cells = experiment: TGF-induced soluble fibronectin synthesis in L929 cells (ELISA); assay type: cell-based; conditions: 500 μM; FIG. 4E
Protocol: Five thousand L929 cells were plated in complete DMEN and incubated until confluency for 3 days.
Fibronectin is another important component of fibrotic lungs as it is induced by TGF-β and functions both as a structural component of extra cellular matrix as well as well as a ligand for integrin receptors. Just like soluble collagen, binding of fibronectin to integrin receptors induces the proliferation of fibroblast and epithelial cells of the lungs.

[2] = Phase 1 food effect study Part 2 (Cohort 5), single 500 mg dose fed vs fasted; assay type: in vivo, human; conditions: LYT-100 @500 mg single dose
Protocol: The comparison will be based on Day 1, Day 2 and Day 3 PK plasma samples after the first dose of study drug on Day 1 under fast and fed conditions of Part 2.
Subjects will be admitted to the CRU on Day-1 and will fast overnight for at least 10 h.

[3] = Phase 1 multiple ascending dose (MAD) study Part 1, healthy volunteers (PK and safety); conditions: 100 to 1000 mg BID, 5 days
Protocol: as §1, §2, §3, §4

## [2H]C([2H])([2H])c1ccc(=O)n(-c2ccccc2)c1 [LYT-100, 5-(methyl-d3)-1-phenylpyridin-2-(1H)-one]
[1]
  Dose dependence of AUC96-108 across all dose Cohorts: linear dose proportionality
  Dose limiting toxicities: no dose limiting toxicities observed
  Grading of adverse events: mild and transient
[1]; 5 days
  AEs considered possibly related to treatment: 33
  Most common AE, headache: subjects: 25%
  Subjects who experienced adverse events: 33 subjects
  Total adverse events (AEs): 72
L929 cells
  Effect on soluble fibronectin levels, in the absence and presence of TGF-β-induction: signficantly reduced
[2]
  AUC, % Change Fed vs Fasted: −19%
  Cmax, % Change Fed vs Fasted: −23%
  Tmax, % Change Fed vs Fasted: +25%
[3]
  Maximally tolerated dose: no maximally tolerated dose was reached
